The record followed here is patent US6054591A, “Lymph-absorbable aryl substituted imidazole derivatives” (Shionogi & Co., Ltd., priority 1996, dated 2000).

In brackets after ≈: the same amount, converted by molar mass.

The term EC50 denotes the concentration needed to bring the measured effect to its halfway point.

One test deals with HIV (HTLV-IIIB strain). In words: Infection inhibitory activity (anti-HIV activity, MTT assay in MT-4 cells). As to conditions: Human immunodeficiency virus 1, IIIB, MT4, 120 h. The class given is cell-based. Here is the method:
Infection inhibitory activity of the compound
The anti-HIV activity of the representative compounds prepared in the above examples was assayed by the following procedures.
Human T cell line MOLT-4 clone 8 persistently infected by HIV (HTLV-IIIB strain) was cultured in an RPMI-1640 medium supplemented with 10% fetal calf serum, the culture supernatant was filtered, the titer of virus was determined on the filtrate, and the culture supernatant was stored at -80° C. On the other hand, the test compound was diluted with the above culture medium to predetermined concentration range 1 μg/ml to 1 ng/ml and distributed in 50 μl aliquots into a 96-well microtiter plate. Then, a suspension of MT-4 cells was added in 100 μl aliquots (3.5×10^4 cells per well) and then 50 μl (60 pfu (plaque forming units)) per well of the above HIV-containing supernatant diluted with the above culture medium each was added.
The plate was incubated in a CO2 incubator at 37° C. for 5 days. Then, 30 μl/well of 3-(4,5-dimethylthiazol-2-yl)-2,5-[…] (MTT) and 5 mg/ml PBS was added and the incubation was further continued for 1 hour. The surviving cells reducing MTT yield precipitation of formazan. Therefore, 150 μl portions of the culture supernatant were removed from all wells and, instead, 150 μl of a solution (10% Triton X-100 and 0.4% (v/v) HCl added isopropanol) was added. The plate was shaken on a plate mixer to dissolve the formazan. The OD of formazan was measured with a microreader at 560 nm and 690 nm (reference wavelength) and the result was compared with that of control. The cytotoxic effect for the virus was expressed as EC50.
A general note: Tetrazolium dyes change colour on reduction, which living cells bring about.
The molecule `CC(C)c1nc(COC(=O)NC(=O)Oc2ccc(-c3ccccc3)cc2)n(Cc2ccncc2)c1Sc1cc(Cl)cc(Cl)c1` [Compound 103, 5-(3,5-Dichlorophenylthio)-4-isopropyl-1-(4-pyridylmethyl)-1H-imidazol-2-ylmethyl 4-biphenyl iminodicaboxylate] had an EC50 of 8 ng/mL (≈ 0.0124 µM).
Still for that read-out and setting: next, `CC(C)c1nc(COC(=O)NC(=O)Oc2cccc3ccccc23)n(Cc2ccncc2)c1Sc1cc(Cl)cc(Cl)c1` [Compound 104, 5-(3,5-Dichlorophenylthio)-4-isopropyl-1-(4-pyridylmethyl)-1H-imidazol-2-ylmethyl 1-naphthyl iminodicaboxylate]: < 8 ng/mL.

The test is the same for the next values; noted with them: Human immunodeficiency virus 1, MT4, 120 h; MT-4 cells, HIV HTLV-IIIB, 5 days at 37° C., MTT; read-out: EC50.
Turning to `CCn1c(COC(=O)NC(=O)c2ccc(Cl)cc2)nc(C(C)C)c1Sc1cc(Cl)cc(Cl)c1` [Compound 86, 5-(3,5-Dichlorophenylthio)-1-ethyl-4-isopropyl-1H-imidazol-2-ylmethyl 4-chlorobenzoylcarbamate], the EC50 was 8 ng/mL (≈ 0.0152 µM).
Still for that read-out and setting: with `CCn1c(COC(=O)NC(=O)c2cc(Cl)cc(Cl)c2)nc(C(C)C)c1Sc1cc(Cl)cc(Cl)c1` [Compound 87, 5-(3,5-Dichlorophenylthio)-1-ethyl-4-isopropyl-1H-imidazol-2-ylmethyl 3,5-dichlorobenzoylcarbamate] the figure was 8 ng/mL (≈ 0.0143 µM); with `CCCCCCCC(=O)NC(=O)OCc1nc(C(C)C)c(Sc2cc(Cl)cc(Cl)c2)n1CC` [Compound 82, 5-(3,5-Dichlorophenylthio)-1-ethyl-4-isopropyl-1H-imidazol-2-ylmethyl octanoylcarbamate], 8 to 16 ng/mL (≈ 0.0155 to 0.0311 µM); with `CC(C)c1nc(COC(=O)NCN(Cc2ccccc2)Cc2ccccc2)n(Cc2ccncc2)c1Sc1cc(Cl)cc(Cl)c1` [Compound 114, 5-(3,5-Dichlorophenylthio)-4-isopropyl-1-(4-pyridylmethyl)-1H-imidazol-2-ylmethyl dibenzylaminomethylcarbamate], 3 to 5 ng/mL (≈ 0.00454 to 0.00757 µM).
Same read-out and setting: next, `CCn1c(CO)nc(C(C)C)c1Sc1cc(Cl)cc(Cl)c1` [Compound 19, 2-hydroxymethyl-5-(3,5-dichlorophenylthio)-4-isopropyl-1-ethyl-1H-imidazole]: 4 ng/mL (≈ 0.0116 µM); `CCCCCCCCCC(=O)NC(=O)OCc1nc(C(C)C)c(Sc2cc(Cl)cc(Cl)c2)n1Cc1ccncc1` [Compound 92, 5-(3,5-Dichlorophenylthio)-4-isopropyl-1-(4-pyridylmethyl)-1H-imidazol-2-ylmethyl decanoylcarbamate]: < 8 ng/mL.
On the same count and under the same terms, next, `Cc1cc(C)cc(Sc2c(C(C)C)nc(C)n2COCCOC(=O)CCC(=O)O)c1` [Compound 68, Mono-{2-[5-(3,5-dimethylphenylthio)-4-isopropyl-2-methyl-imidazol-1-yl]methoxyethyl}succinate]: 8 ng/mL.
On to `CC(=O)NC(=O)OCc1nc(C(C)C)c(Sc2cc(Cl)cc(Cl)c2)n1Cc1ccncc1` [Compound 90, 5-(3,5-Dichlorophenylthio)-4-isopropyl-1-(4-pyridylmethyl)-1H-imidazol-2-ylmethyl acetylcarbamate], for which the concentration giving a half-maximal response (EC50) is < 8 ng/mL.
Same read-out and setting: next, `CC(C)c1nc(COC(=O)NCN2CCOCC2)n(Cc2ccncc2)c1Sc1cc(Cl)cc(Cl)c1` [Compound 113, 5-(3,5-Dichlorophenylthio)-4-isopropyl-1-(4-pyridylmethyl)-1H-imidazol-2-ylmethyl morpholinomethylcarbamate]: 3 to 5 ng/mL (≈ 0.00545 to 0.00908 µM).
On the same count and under the same terms, next, `CCn1c(COC(=O)NC(C)=O)nc(C(C)C)c1Sc1cc(Cl)cc(Cl)c1` [Compound 80, 5-(3,5-Dichlorophenylthio)-1-ethyl-4-isopropyl-1H-imidazol-2-ylmethyl acetylcarbamate]: 1 ng/mL (≈ 0.00232 µM).
`Cc1nc(C(C)C)c(Sc2cc(Cl)cc(Cl)c2)n1COCCOCOC(=O)C(C)(C)C` [Compound 77, 2-[5-(3,5-Dichlorophenylthio)-4-isopropyl-2-methyl-imidazol-1-ylmethoxy]ethyl 2,2-dimethylpropionyloxymethyl ether]: the EC50 stood at 8 ng/mL (≈ 0.0163 µM).
In the case of `CCCCCCCCCC(=O)OCc1nc(C(C)C)c(Sc2cc(Cl)cc(Cl)c2)n1CC` [Compound 109, 5-(3,5-Dichlorophenylthio)-1-ethyl-4-isopropyl-1H-imidazol-2-ylmethyl decanoate], the EC50 was 8 to 16 ng/mL (≈ 0.016 to 0.032 µM).
On the same count and under the same terms, with `Cc1nc(C(C)C)c(Sc2cc(Cl)cc(Cl)c2)n1COCCO` [Compound 8, 5-(3,5-Dichlorophenylthio)-4-isopropyl-1-[2-hydroxyethoxymethyl]-2-methyl-1H-imidazole] the figure was 5 ng/mL (≈ 0.0133 µM); with `CCn1c(CCOC2=CCCCCCC2)nc(C(C)C)c1Sc1cc(Cl)cc(Cl)c1` [Compound 59], 2.5 to 5 ng/mL (≈ 0.00535 to 0.0107 µM); with `CCCCCCCC(=O)NC(=O)OCc1nc(C(C)C)c(Sc2cc(Cl)cc(Cl)c2)n1Cc1ccncc1` [Compound 91, 5-(3,5-Dichlorophenylthio)-4-isopropyl-1-(4-pyridylmethyl)-1H-imidazol-2-ylmethyl octanoylcarbamate], 8 to 16 ng/mL (≈ 0.0139 to 0.0277 µM).
Same read-out and setting: next, `Cc1nc(C(C)C)c(Sc2cc(Cl)cc(Cl)c2)n1COCCOC1=CCCCCCC1` [Compound 11, 1-[2-(Cycloocten-1-yloxy)ethoxymethyl]-5-(3,5-dichlorophenylthio)-4-isopropyl-2-methyl-1H-imidazole]: 8 ng/mL (≈ 0.0165 µM).
On to `CCn1c(CCO)nc(C(C)C)c1Sc1cc(Cl)cc(Cl)c1` [Compound 54], for which the EC50 came out at 2 ng/mL (≈ 0.00557 µM).
On to `CC(C)c1nc(CO)n(C)c1Sc1cc(Cl)cc(Cl)c1` [Compound 14, 5-(3,5-dichlorophenylthio)-4-isopropyl-1-methyl-2-hydroxymethyl-1H-imidazole], for which the EC50 amounted to 16 ng/mL (≈ 0.0483 µM).
Still for that read-out and setting: with `CCCCCCCC(=O)OCc1nc(C(C)C)c(Sc2cc(Cl)cc(Cl)c2)n1CC` [Compound 108, 5-(3,5-Dichlorophenylthio)-1-ethyl-4-isopropyl-1H-imidazol-2-ylmethyl octanoate] the figure was 8 ng/mL (≈ 0.017 µM); with `CCCCN(CCCC)CNC(=O)OCc1nc(C(C)C)c(Sc2cc(Cl)cc(Cl)c2)n1Cc1ccncc1` [Compound 112, 5-(3,5-Dichlorophenylthio)-4-isopropyl-1-(4-pyridylmethyl)-1H-imidazol-2-ylmethyl di-n-butylaminomethylcarbamate], 3 ng/mL (≈ 0.00506 µM).
The same measure, in the same setting: with `Cc1nc(C(C)C)c(Sc2cc(Cl)cc(Cl)c2)n1COCCOC(=O)CCCCCCCCCCCCCCC(=O)O` [Compound 75, Mono-{2-[5-(3,5-dichlorophenylthio)-4-isopropyl-2-methyl-imidazol-1-ylmethoxy]ethyl} hexadecanedioate] the figure was 8 ng/mL (≈ 0.0124 µM).
The same measure, in the same setting: with `Cc1cc(C)cc(Sc2c(C(C)C)nc(C)n2COCCO)c1` [Compound 1, 5-(3,5-dimethylphenylthio)-4-isopropyl-1-(2-hydroxyethoxymethyl)-2-methyl-1H-imidazole] the figure was 8 ng/mL (≈ 0.0239 µM).
As for `Cc1nc(C(C)C)c(Sc2cc(Cl)cc(Cl)c2)n1COCCOC(=O)CCC(=O)O` [Compound 76, Mono-{2-[5-(3,5-dichlorophenylthio)-4-isopropyl-2-methyl-imidazol-1-ylmethoxy]ethyl succinate], the EC50 was found to be 8 ng/mL.
With `CC(C)c1nc(COC(N)=O)n(Cc2ccncc2)c1Sc1cc(Cl)cc(Cl)c1` [Compound 111, 5-(3,5-dichlorophenylthio)-4-isopropyl-1-(4-pyridylmethyl)-1H-imidazol-2-ylmethyl carbamate], the EC50 worked out at 0.9 ng/mL (≈ 0.00199 µM).
